Tests used:
Experiment in all cases: relative viability (nuclei count vs DMSO), 5 days (fraction); higher = more cells survive
NCI-H838 = system: NCI-H838
Summary of the method: (§1)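 Relative viability divides the nuclei count in treated wells by that in vehicle wells. Lung cancer cell lines were seeded in 1536-well plates, dosed by pin tool the next day, and fixed and stained after 5 days in one step with final 0.05% Triton X-100, 1% formaldehyde and 1 ug/ml Hoechst. Dosing was a single drug or a fixed anchor-drug dose plus five library-drug doses (not always all listed) in √10 steps, and values are medians of duplicate plates imaged at 4×.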

CAL-12T = system: CAL-12T
Summary of the method: as §1

NCI-H1734 = system: NCI-H1734
Summary of the method: as §1

NCI-H522 = system: NCI-H522
Summary of the method: as §1

NCI-H3122 = system: NCI-H3122
Summary of the method: as §1

NCI-H1975 = system: NCI-H1975
Summary of the method: as §1

HCC-366 = system: HCC-366
Summary of the method: as §1

NCI-H647 = system: NCI-H647
Summary of the method: as §1

SK-LU-1 = system: SK-LU-1
Summary of the method: as §1

LC-2-ad = system: LC-2-ad
Summary of the method: as §1

H3255 = system: H3255
Summary of the method: as §1

LU99A = system: LU99A
Summary of the method: as §1

NCI-H1563 = system: NCI-H1563
Summary of the method: as §1

NCI-H1944 = system: NCI-H1944
Summary of the method: as §1

NCI-H1666 = system: NCI-H1666
Summary of the method: as §1

HCC-15 = system: HCC-15
Summary of the method: as §1

PC-3 [JPC-3] = system: PC-3 [JPC-3]
Summary of the method: as §1

NCI-H1993 = system: NCI-H1993
Summary of the method: as §1

NCI-H1395 = system: NCI-H1395
Summary of the method: as §1

PC-14 = system: PC-14
Summary of the method: as §1

COR-L 105 = system: COR-L 105
Summary of the method: as §1

HARA = system: HARA
Summary of the method: as §1

## COCC1(CO)C(=O)C2CCN1CC2 (configuration not stated) [PRIMA-1MET] + N=C(N)NC(=N)NCCc1ccccc1 [Phenformin] (partner 250 µM)
NCI-H838; first compound 0.2 µM
  relative viability: 0.574
NCI-H838; first compound 0.6325 µM
  relative viability: 0.535
NCI-H838; first compound 2 µM
  relative viability: 0.451
NCI-H838; first compound 6.325 µM
  relative viability: 0.712
NCI-H838; first compound 20 µM
  relative viability: 0.0931
CAL-12T; first compound 0.2 µM
  relative viability: 0.52
CAL-12T; first compound 0.6325 µM
  relative viability: 0.592
CAL-12T; first compound 2 µM
  relative viability: 0.586
CAL-12T; first compound 6.325 µM
  relative viability: 0.519
CAL-12T; first compound 20 µM
  relative viability: 0.0696
NCI-H1734; first compound 0.2 µM
  relative viability: 0.385
NCI-H1734; first compound 0.6325 µM
  relative viability: 0.328
NCI-H1734; first compound 2 µM
  relative viability: 0.324
NCI-H1734; first compound 6.325 µM
  relative viability: 0.361
NCI-H1734; first compound 20 µM
  relative viability: 0.058
NCI-H522; first compound 0.2 µM
  relative viability: 0.626
NCI-H522; first compound 0.6325 µM
  relative viability: 0.459
NCI-H522; first compound 2 µM
  relative viability: 0.534
NCI-H522; first compound 6.325 µM
  relative viability: 0.619
NCI-H522; first compound 20 µM
  relative viability: 0.142
NCI-H3122; first compound 0.2 µM
  relative viability: 0.367
NCI-H3122; first compound 0.6325 µM
  relative viability: 0.35
NCI-H3122; first compound 6.325 µM
  relative viability: 0.392
NCI-H3122; first compound 20 µM
  relative viability: 0.343
NCI-H1975; first compound 0.2 µM
  relative viability: 0.41
NCI-H1975; first compound 0.6325 µM
  relative viability: 0.4
NCI-H1975; first compound 2 µM
  relative viability: 0.381
NCI-H1975; first compound 6.325 µM
  relative viability: 0.42
NCI-H1975; first compound 20 µM
  relative viability: 0.194
HCC-366; first compound 0.2 µM
  relative viability: 0.651
HCC-366; first compound 0.6325 µM
  relative viability: 0.611
HCC-366; first compound 2 µM
  relative viability: 0.484
HCC-366; first compound 6.325 µM
  relative viability: 0.633
HCC-366; first compound 20 µM
  relative viability: 0.462
NCI-H647; first compound 0.2 µM
  relative viability: 0.405
NCI-H647; first compound 0.6325 µM
  relative viability: 0.546
NCI-H647; first compound 2 µM
  relative viability: 0.453
NCI-H647; first compound 6.325 µM
  relative viability: 0.514
NCI-H647; first compound 20 µM
  relative viability: 0.0596
SK-LU-1; first compound 0.2 µM
  relative viability: 0.545
SK-LU-1; first compound 0.6325 µM
  relative viability: 0.559
SK-LU-1; first compound 2 µM
  relative viability: 0.326
SK-LU-1; first compound 6.325 µM
  relative viability: 0.606
SK-LU-1; first compound 20 µM
  relative viability: 0.0941
LC-2-ad; first compound 0.2 µM
  relative viability: 0.548
LC-2-ad; first compound 2 µM
  relative viability: 0.49
LC-2-ad; first compound 6.325 µM
  relative viability: 0.568
LC-2-ad; first compound 20 µM
  relative viability: 0.36
H3255; first compound 0.2 µM
  relative viability: 0.458
H3255; first compound 0.6325 µM
  relative viability: 0.335
H3255; first compound 2 µM
  relative viability: 0.36
H3255; first compound 6.325 µM
  relative viability: 0.374
H3255; first compound 20 µM
  relative viability: 0.293
LU99A; first compound 0.2 µM
  relative viability: 0.646
LU99A; first compound 0.6325 µM
  relative viability: 0.736
LU99A; first compound 2 µM
  relative viability: 0.734
LU99A; first compound 6.325 µM
  relative viability: 0.831
LU99A; first compound 20 µM
  relative viability: 0.0482
NCI-H1563; first compound 0.2 µM
  relative viability: 0.686
NCI-H1563; first compound 0.6325 µM
  relative viability: 0.673
NCI-H1563; first compound 2 µM
  relative viability: 0.668
NCI-H1563; first compound 6.325 µM
  relative viability: 0.719
NCI-H1563; first compound 20 µM
  relative viability: 0.302
NCI-H1944; first compound 0.2 µM
  relative viability: 0.215
NCI-H1944; first compound 0.6325 µM
  relative viability: 0.189
NCI-H1944; first compound 2 µM
  relative viability: 0.155
NCI-H1944; first compound 6.325 µM
  relative viability: 0.201
NCI-H1944; first compound 20 µM
  relative viability: 0.214
NCI-H1666; first compound 0.2 µM
  relative viability: 0.558
NCI-H1666; first compound 0.6325 µM
  relative viability: 0.548
NCI-H1666; first compound 2 µM
  relative viability: 0.555
NCI-H1666; first compound 6.325 µM
  relative viability: 0.634
NCI-H1666; first compound 20 µM
  relative viability: 0.564
HCC-15; first compound 0.2 µM
  relative viability: 0.427
HCC-15; first compound 0.6325 µM
  relative viability: 0.471
HCC-15; first compound 2 µM
  relative viability: 0.439
HCC-15; first compound 6.325 µM
  relative viability: 0.451
HCC-15; first compound 20 µM
  relative viability: 0.172
PC-3 [JPC-3]; first compound 0.2 µM
  relative viability: 0.464
PC-3 [JPC-3]; first compound 0.6325 µM
  relative viability: 0.456
PC-3 [JPC-3]; first compound 2 µM
  relative viability: 0.462
PC-3 [JPC-3]; first compound 6.325 µM
  relative viability: 0.477
PC-3 [JPC-3]; first compound 20 µM
  relative viability: 0.466
NCI-H1993; first compound 0.2 µM
  relative viability: 0.503
NCI-H1993; first compound 0.6325 µM
  relative viability: 0.526
NCI-H1993; first compound 2 µM
  relative viability: 0.496
NCI-H1993; first compound 6.325 µM
  relative viability: 0.544
NCI-H1993; first compound 20 µM
  relative viability: 0.57
NCI-H1395; first compound 0.2 µM
  relative viability: 0.469
NCI-H1395; first compound 0.6325 µM
  relative viability: 0.414
NCI-H1395; first compound 2 µM
  relative viability: 0.416
NCI-H1395; first compound 6.325 µM
  relative viability: 0.441
NCI-H1395; first compound 20 µM
  relative viability: 0.395
PC-14; first compound 0.2 µM
  relative viability: 0.621
PC-14; first compound 0.6325 µM
  relative viability: 0.503
PC-14; first compound 2 µM
  relative viability: 0.735
PC-14; first compound 6.325 µM
  relative viability: 0.379
PC-14; first compound 20 µM
  relative viability: 0.0559
COR-L 105; first compound 0.2 µM
  relative viability: 0.547
COR-L 105; first compound 0.6325 µM
  relative viability: 0.438
COR-L 105; first compound 2 µM
  relative viability: 0.373
COR-L 105; first compound 6.325 µM
  relative viability: 0.459
COR-L 105; first compound 20 µM
  relative viability: 0.124
HARA; first compound 0.2 µM
  relative viability: 0.526
HARA; first compound 0.6325 µM
  relative viability: 0.421
HARA; first compound 6.325 µM
  relative viability: 0.538
HARA; first compound 20 µM
  relative viability: 0.409

Reference: the supplement of paper PMC10307832
